Species: Rattus norvegicus
Experiment: Open TG-GATES - Regimen: Single
Format: toxicity, organism-based, Sprague-Dawley
Set-up: regimen Single, gender Male, age 6 weeks
Conditions: in vivo, po, 1000 mg/kg, route gavage, dose level High; for APTT / Bas / Eos / Fbg / Hb / Ht / Lym / MCH / MCHC / MCV / Mono / Neu / PT / Plat / RBC / Ret / WBC: tissue Blood; for KIDNEY_L / KIDNEY_R / KIDNEY_TOTAL: tissue Kidney; for LIVER: tissue Liver; for A/G / ALP / ALT / AST / BUN / CRE / Ca / Cl / DBIL / GLC / IP / K / LDH / Na / PL / RALB / TBIL / TC / TG / TP / gamma-GTP: tissue Plasma

**Q.** What does the source list for `CCCCNC(=O)NS(=O)(=O)c1ccc(C)cc1` [TOLBUTAMIDE]?
**A.** TERMINAL_BW (3 h): 206.8 g; APTT (3 h): 17 s; Bas (3 h): 0%; Eos (3 h): 0.8%; Fbg (3 h): 292.2 mg/dL; Hb (3 h): 14.1 g/dL; Ht (3 h): 43.1%; Lym (3 h): 76.8%; MCH (3 h): 21 pg; MCHC (3 h): 32.6%; MCV (3 h): 64.4 fL; Mono (3 h): 3%; Neu (3 h): 18.6%; PT (3 h): 12.9 s; Plat (3 h): 111.8 x10_4/uL; RBC (3 h): 669.4 x10_4/ul; Ret (3 h): 9%; WBC (3 h): 54.6 x10_2/uL; KIDNEY_L (3 h): 0.9 g; KIDNEY_R (3 h): 0.9 g; KIDNEY_TOTAL (3 h): 1.8 g; LIVER (3 h): 9.4 g; A/G (3 h): 0.9; ALP (3 h): 1359.4 IU/L; ALT (3 h): 46.8 IU/L; AST (3 h): 77.6 IU/L; BUN (3 h): 12.4 mg/dL; CRE (3 h): 0.2 mg/dL; Ca (3 h): 10.9 mg/dL; Cl (3 h): 105.8 meq/L; DBIL (3 h): 0.004 mg/dL; GLC (3 h): 152 mg/dL; IP (3 h): 9.3 mg/dL; K (3 h): 4 meq/L; LDH (3 h): 56.4 IU/L; Na (3 h): 140.6 meq/L; PL (3 h): 138.2 mg/dL; RALB (3 h): 2.7 g/dL; TBIL (3 h): 0.05 mg/dL; TC (3 h): 73.6 mg/dL; TG (3 h): 75 mg/dL; TP (3 h): 5.6 g/dL; gamma-GTP (3 h): 1 IU/L; TERMINAL_BW (6 h): 203.1 g; APTT (6 h): 16.9 s; Bas (6 h): 0%; Eos (6 h): 1%; Fbg (6 h): 321.6 mg/dL; Hb (6 h): 14.1 g/dL; Ht (6 h): 43%; Lym (6 h): 72%; MCH (6 h): 21.4 pg; MCHC (6 h): 32.7%; MCV (6 h): 65.3 fL; Mono (6 h): 3.4%; Neu (6 h): 23.6%; PT (6 h): 12.8 s; Plat (6 h): 120.2 x10_4/uL; RBC (6 h): 659.8 x10_4/ul; Ret (6 h): 8.9%; WBC (6 h): 69.4 x10_2/uL; KIDNEY_L (6 h): 0.9 g; KIDNEY_R (6 h): 0.9 g; KIDNEY_TOTAL (6 h): 1.8 g; LIVER (6 h): 8.5 g; A/G (6 h): 0.9; ALP (6 h): 1301 IU/L; ALT (6 h): 39 IU/L; AST (6 h): 70.6 IU/L; BUN (6 h): 12.6 mg/dL; CRE (6 h): 0.2 mg/dL; Ca (6 h): 11 mg/dL; Cl (6 h): 105.2 meq/L; DBIL (6 h): 0.008 mg/dL; GLC (6 h): 140 mg/dL; IP (6 h): 9.8 mg/dL; K (6 h): 3.9 meq/L; LDH (6 h): 56 IU/L; Na (6 h): 140.6 meq/L; PL (6 h): 144.4 mg/dL; RALB (6 h): 2.7 g/dL; TBIL (6 h): 0.054 mg/dL; TC (6 h): 79.6 mg/dL; TG (6 h): 64.2 mg/dL; TP (6 h): 5.7 g/dL; gamma-GTP (6 h): 1.2 IU/L; TERMINAL_BW (9 h): 197.9 g; APTT (9 h): 17.7 s; Bas (9 h): 0.2%; Eos (9 h): 1%; Fbg (9 h): 332.8 mg/dL; Hb (9 h): 14.4 g/dL; Ht (9 h): 43.7%; Lym (9 h): 75%; MCH (9 h): 21 pg; MCHC (9 h): 33.1%; MCV (9 h): 63.4 fL; Mono (9 h): 1.8%; Neu (9 h): 22%; PT (9 h): 13.1 s; Plat (9 h): 127.4 x10_4/uL; RBC (9 h): 689.4 x10_4/ul; Ret (9 h): 8.2%; WBC (9 h): 56.7 x10_2/uL; KIDNEY_L (9 h): 0.9 g; KIDNEY_R (9 h): 0.9 g; KIDNEY_TOTAL (9 h): 1.9 g; LIVER (9 h): 7.8 g; A/G (9 h): 0.9; ALP (9 h): 1554.6 IU/L; ALT (9 h): 38.8 IU/L; AST (9 h): 69.8 IU/L; BUN (9 h): 11.2 mg/dL; CRE (9 h): 0.2 mg/dL; Ca (9 h): 10.7 mg/dL; Cl (9 h): 106 meq/L; DBIL (9 h): 0.006 mg/dL; GLC (9 h): 125.2 mg/dL; IP (9 h): 10.4 mg/dL; K (9 h): 3.9 meq/L; LDH (9 h): 53.6 IU/L; Na (9 h): 141.4 meq/L; PL (9 h): 127 mg/dL; RALB (9 h): 2.7 g/dL; TBIL (9 h): 0.056 mg/dL; TC (9 h): 66.2 mg/dL; TG (9 h): 44.2 mg/dL; TP (9 h): 5.8 g/dL; gamma-GTP (9 h): 1 IU/L; TERMINAL_BW (24 h): 213.9 g; APTT (24 h): 16.6 s; Bas (24 h): 0%; Eos (24 h): 1%; Fbg (24 h): 274 mg/dL; Hb (24 h): 13.3 g/dL; Ht (24 h): 41.1%; Lym (24 h): 80%; MCH (24 h): 21 pg; MCHC (24 h): 32.5%; MCV (24 h): 64.4 fL; Mono (24 h): 3%; Neu (24 h): 15.6%; PT (24 h): 13.4 s; Plat (24 h): 117.8 x10_4/uL; RBC (24 h): 637.8 x10_4/ul; Ret (24 h): 7.3%; WBC (24 h): 83.8 x10_2/uL; KIDNEY_L (24 h): 0.9 g; KIDNEY_R (24 h): 0.9 g; KIDNEY_TOTAL (24 h): 1.8 g; LIVER (24 h): 9.4 g; A/G (24 h): 0.9; ALP (24 h): 1517.2 IU/L; ALT (24 h): 44.2 IU/L; AST (24 h): 75.4 IU/L; BUN (24 h): 15.4 mg/dL; CRE (24 h): 0.2 mg/dL; Ca (24 h): 10.9 mg/dL; Cl (24 h): 106.6 meq/L; DBIL (24 h): 0.006 mg/dL; GLC (24 h): 201.4 mg/dL; IP (24 h): 8.4 mg/dL; K (24 h): 3.9 meq/L; LDH (24 h): 73.4 IU/L; Na (24 h): 141.6 meq/L; PL (24 h): 136.6 mg/dL; RALB (24 h): 2.5 g/dL; TBIL (24 h): 0.058 mg/dL; TC (24 h): 77.2 mg/dL; TG (24 h): 72.2 mg/dL; TP (24 h): 5.4 g/dL; gamma-GTP (24 h): 1 IU/L
